The assay has as its target T1, hTLR7 (Homo sapiens, UniProt Q9NYK1).
T1 sequence (Q9NYK1 27-1049): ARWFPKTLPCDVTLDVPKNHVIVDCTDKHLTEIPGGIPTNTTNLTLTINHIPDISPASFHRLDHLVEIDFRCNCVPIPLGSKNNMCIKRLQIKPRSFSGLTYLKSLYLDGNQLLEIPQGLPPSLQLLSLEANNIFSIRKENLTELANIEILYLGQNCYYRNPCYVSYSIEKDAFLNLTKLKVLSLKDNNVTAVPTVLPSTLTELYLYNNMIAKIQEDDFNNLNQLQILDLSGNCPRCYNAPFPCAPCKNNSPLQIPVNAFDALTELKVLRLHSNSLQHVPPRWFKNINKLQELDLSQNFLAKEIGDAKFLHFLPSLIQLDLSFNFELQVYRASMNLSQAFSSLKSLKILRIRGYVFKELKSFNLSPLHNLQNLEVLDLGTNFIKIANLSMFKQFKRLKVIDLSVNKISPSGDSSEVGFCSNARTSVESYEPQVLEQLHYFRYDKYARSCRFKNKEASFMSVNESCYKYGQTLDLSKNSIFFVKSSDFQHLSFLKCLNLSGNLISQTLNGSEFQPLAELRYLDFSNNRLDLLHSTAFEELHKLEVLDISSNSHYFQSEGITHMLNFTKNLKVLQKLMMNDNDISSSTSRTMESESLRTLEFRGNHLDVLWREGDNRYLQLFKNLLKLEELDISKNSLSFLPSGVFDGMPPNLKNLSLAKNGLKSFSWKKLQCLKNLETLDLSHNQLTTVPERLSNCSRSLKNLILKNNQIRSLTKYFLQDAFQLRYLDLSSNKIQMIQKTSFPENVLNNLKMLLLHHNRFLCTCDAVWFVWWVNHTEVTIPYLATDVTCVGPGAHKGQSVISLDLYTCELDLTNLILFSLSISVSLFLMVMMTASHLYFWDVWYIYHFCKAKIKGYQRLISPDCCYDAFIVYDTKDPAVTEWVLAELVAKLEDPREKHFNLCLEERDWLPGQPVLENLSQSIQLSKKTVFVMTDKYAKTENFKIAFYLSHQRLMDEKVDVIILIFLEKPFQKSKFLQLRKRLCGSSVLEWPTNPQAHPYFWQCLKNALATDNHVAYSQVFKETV
Put plainly: HEK293-Blue-hTLR-7 cells assay (SEAP reporter, R848 stimulation). As to conditions: HEK293-Blue-hTLR7 cells, R848, 20 hrs; 0.003 is the lowest tested concentration; read-out: HEK/hTLR7 IC50. Type of assay: cell-based. As to the method:
The following tests were carried out in order to determine the activity of the compounds of formula (I) or (Ia) in HEK293-Blue-hTLR-7/8/9 cells assay.
HEK293-Blue-hTLR-7 cells assay:
A stable HEK293-Blue-hTLR-7 cell line was purchased from InvivoGen (Cat.#: hkb-htlr7, San Diego, California, USA). These cells were originally designed for studying the stimulation of human TLR7 by monitoring the activation of NF-κB. A SEAP (secreted embryonic alkaline phosphatase) reporter gene was placed under the control of the IFN-β minimal promoter fused to five NF-κB and AP-1-binding sites. The SEAP was induced by activating NF-κB and AP-1 via stimulating HEK-Blue hTLR7 cells with TLR7 ligands. Therefore the reporter expression was declined by TLR7 antagonist under the stimulation of a ligand, such as R848 (Resiquimod), for incubation of 20 hrs. The cell culture supernatant SEAP reporter activity was determined using QUANTI-Blue™ kit (Cat.#: rep-qb1, Invivogen, San Diego, Ca, USA) at a wavelength of 640 nm, a detection medium that turns purple or blue in the presence of alkaline phosphatase.
HEK293-Blue-hTLR7 cells were incubated at a density of 250,000∼450,000 cells/mL in a volume of 170 µL in a 96-well plate in Dulbecco's Modified Eagle's medium (DMEM) containing 4.5 g/L glucose, 50 U/mL penicillin, […], […], 2 mM L-glutamine, 10% (v/v) heat-inactivated fetal bovine serum with addition of 20 µL test compound in a serial dilution in the presence of final DMSO at 1% and 10 µL of 20uM R848 in above DMEM, perform incubation under 37 °C in a CO2 incubator for 20 hrs. Then 20 µL of the supernatant from each well was incubated with 180 µL Quanti-blue substrate solution at 37 °C for 2 hrs and the absorbance was read at 620∼655 nm using a spectrophotometer. The signalling pathway that TLR7 activation leads to downstream NF-κB activation has been widely accepted, and therefore similar reporter assay was modified for evaluating TLR7 antagonist.

Some results are limits rather than exact numbers.

With “3-fluoro-4-[(2R,6S)-2-methyl-6-[(5-piperazin-1-ylisoindolin-2-yl)methyl]morpholin-4-yl]pyrazolo[1,5-a]pyridine-7-carbonitrile [Example 7]”, the IC50 amounted to 42 nM.
In the case of “5-[(2S,6R)-2-[[5-[3-(hydroxymethyl)piperazin-1-yl]isoindolin-2-yl]methyl]-6-methyl-morpholin-4-yl]quinoline-8-carbonitrile [Example 85]” it was 20 nM; in that of `C[C@@H]1CN(c2ccc3c(c2)CN(C[C@H]2CN(c4ccc(C#N)c5ncccc45)C[C@@H](C)O2)C3)C[C@@H](C)N1` (mixture of isomers) [Example 57, Trans-5-[(2R,6S)-2-methyl-6-[[5-[3,5-dimethylpiperazin-1-yl]isoindolin-2-yl]methyl]morpholin-4-yl]quinoline-8-carbonitrile], 125 nM.
In the case of `C[C@@H]1CN(c2ccc(C#N)n3nccc23)C[C@H](CN2Cc3ccc(N4CCNCC4)cc3C2)O1` [Example 4, 4-[(2R,6S)-2-methyl-6-[(5-piperazin-1-ylisoindolin-2-yl)methyl]morpholin-4-yl]pyrazolo[1,5-a]pyridine-7-carbonitrile] it was 56 nM.
With `C[C@@H]1CN(c2ccc(C#N)n3nccc23)C[C@H](CN2Cc3ccc(C4CCNCC4)cc3C2)O1` [Example 8, 4-[(2R,6S)-2-methyl-6-[[5-(4-piperidyl)isoindolin-2-yl]methyl]morpholin-4-yl]pyrazolo[1,5-a]pyridine-7-carbonitrile], the IC50 was determined as 206 nM.
Next, `C[C@@H]1CN(c2ccc(C#N)n3nccc23)C[C@H](CN2Cc3ccc(C4CCNC4)cc3C2)O1` (stereo partly drawn) [Example 9, 4-[(2R,6S)-2-methyl-6-[(5-pyrrolidin-3-ylisoindolin-2-yl)methyl]morpholin-4-yl]pyrazolo[1,5-a]pyridine-7-carbonitrile]: 195 nM; `C[C@@H]1CN(c2ccc(C#N)n3nccc23)C[C@H](CN2CCc3cc(N4CCNCC4)ccc3C2)O1` [Example 10, 4-[(2R,6S)-2-methyl-6-[(6-piperazin-1-yl-3,4-dihydro-1H-isoquinolin-2-yl)methyl]morpholin-4-yl]pyrazolo[1,5-a]pyridine-7-carbonitrile]: 81 nM.
In the case of `C[C@@H]1CN(c2ccc(C#N)n3nccc23)C[C@H](CN2CCc3ccc(N4CCNCC4)cc3C2)O1` [Example 11, 4-[(2R,6S)-2-methyl-6-[(7-piperazin-1-yl-3,4-dihydro-1H-isoquinolin-2-yl)methyl]morpholin-4-yl]pyrazolo[1,5-a]pyridine-7-carbonitrile] it was 192 nM.
Next, `C[C@@H]1CN(c2ccc(C#N)c3nccnc23)C[C@H](CN2Cc3ccc(N4CCNCC4)cc3C2)O1` [Example 12, 8-[(2R,6S)-2-methyl-6-[(5-piperazin-1-ylisoindolin-2-yl)methyl]morpholin-4-yl]quinoxaline-5-carbonitrile]: < 3 nM.
With `C[C@@H]1CN(c2ccc(C#N)c3nccnc23)C[C@H](CN2CCc3cc(N4CCNCC4)ccc3C2)O1` [Example 13, 8-[(2R,6S)-2-methyl-6-[(6-piperazin-1-yl-3,4-dihydro-1H-isoquinolin-2-yl)methyl]morpholin-4-yl]quinoxaline-5-carbonitrile], the IC50 stood at 3 nM.
In the case of `C[C@@H]1CN(c2ccc(C#N)n3ncc(F)c23)C[C@H](CN2CCc3cc(N4CCNCC4)ccc3C2)O1` [Example 14, 3-fluoro-4-[(2R,6S)-2-methyl-6-[(6-piperazin-1-yl-3,4-dihydro-1H-isoquinolin-2-yl)methyl]morpholin-4-yl]pyrazolo[1,5-a]pyridine-7-carbonitrile] it was 21 nM; in that of `C[C@@H]1CN(c2ccc(C#N)n3nccc23)C[C@H](CN2CCc3cc(N4CCN(C)CC4)ccc3C2)O1` [Example 15, 4-[(2R,6S)-2-methyl-6-[[6-(4-methylpiperazin-1-yl)-3,4-dihydro-1H-isoquinolin-2-yl]methyl]morpholin-4-yl]pyrazolo[1,5-a]pyridine-7-carbonitrile], 37 nM.

For the origin of these results see patent publication EP3623369A1, “NOVEL MORPHOLINYL AMINE COMPOUNDS FOR THE TREATMENT OF AUTOIMMUNE DISEASE” (F. Hoffmann-La Roche AG, priority 2018, dated 2020).
